{"source": "PubChem BioAssay AID2060503", "about": "(Molecular Pharmacology Branch, DTP, NCI, 2025)"}
{"tested_on": "817829-284-R-J1-PDC complex spheroids, viability", "assay": "Anticancer human tumor 817829-284-R-J1-PDC patient-derived colon adenocarcinoma cell line growth inhibition [GQUAD]", "conditions": "second compound 0.316 µM; first compound 0.316 µM; stronger effect = lower value", "summary_of_the_method": "(§1)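 Tumor cells were grown as complex spheroids with HUVEC endothelial cells and mesenchymal stem cells as stroma. G-quadruplex stabilizers were combined with targeted agents over half-log dilutions from near the clinical Cmax, or from 10 microM.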", "units": {"viability, T/C": "%"}}
{"smiles": "Nc1ccn(C2OC(CO)C(O)C2(F)F)c(=O)n1", "note": "(stereo unspecified) + Cc1[nH]c2ccc(F)cc2c1-c1nc2c3cccnc3c3ncccc3c2[nH]1", "viability, T/C": 6.14}
{"smiles": "O=C(NO)c1cnc(N2CCN(S(=O)(=O)c3ccc4ccccc4c3)CC2)nc1", "note": "+ Cc1[nH]c2ccc(F)cc2c1-c1nc2c3cccnc3c3ncccc3c2[nH]1", "viability, T/C": 3.53}
{"smiles": "O=c1[nH]cc(F)c(=O)[nH]1", "note": "+ Cc1[nH]c2ccc(F)cc2c1-c1nc2c3cccnc3c3ncccc3c2[nH]1", "viability, T/C": 137}
{"tested_on": "817829-284-R-J1-PDC complex spheroids, viability", "assay": "Anticancer human tumor 817829-284-R-J1-PDC cell line growth inhibition [GQUAD];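 also: spheroids exposed to agents for 7 days before readout; percent viability relative to DMSO vehicle control taken as 100%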", "conditions": "second compound 0.316 µM; first compound 1 µM; stronger effect = lower value", "summary_of_the_method": "as §1", "units": {"viability, T/C": "%"}}
{"smiles": "C#Cc1c(F)ccc2cc(O)cc(-c3ncc4c(N5CC6CCC(C5)N6)nc(OCC56CCCN5CC(F)C6)nc4c3F)c12", "note": "(stereo unspecified) + Cc1[nH]c2ccc(F)cc2c1-c1nc2c3cccnc3c3ncccc3c2[nH]1", "viability, T/C": 86.6}
{"smiles": "C=CCn1c(=O)c2cnc(Nc3ccc(N4CCN(C)CC4)cc3)nc2n1-c1cccc(C(C)(C)O)n1", "note": "+ Cc1[nH]c2ccc(F)cc2c1-c1nc2c3cccnc3c3ncccc3c2[nH]1", "viability, T/C": 8.37}
{"smiles": "CC(C)(O)C1CCC(Nc2ccc3ncc(-c4cccc(C(F)(F)F)c4)n3n2)CC1", "note": "(stereo unspecified) + Cc1[nH]c2ccc(F)cc2c1-c1nc2c3cccnc3c3ncccc3c2[nH]1", "viability, T/C": 52}
{"smiles": "Nc1ccn(C2OC(CO)C(O)C2(F)F)c(=O)n1", "note": "(stereo unspecified) + Cc1[nH]c2ccc(F)cc2c1-c1nc2c3cccnc3c3ncccc3c2[nH]1", "viability, T/C": 6.13}
{"smiles": "O=C(NO)c1cnc(N2CCN(S(=O)(=O)c3ccc4ccccc4c3)CC2)nc1", "note": "+ Cc1[nH]c2ccc(F)cc2c1-c1nc2c3cccnc3c3ncccc3c2[nH]1", "viability, T/C": 0.12}
{"smiles": "O=c1[nH]cc(F)c(=O)[nH]1", "note": "+ Cc1[nH]c2ccc(F)cc2c1-c1nc2c3cccnc3c3ncccc3c2[nH]1", "viability, T/C": 69.2}
{"tested_on": "817829-284-R-J1-PDC complex spheroids, viability", "assay": "Anticancer human tumor 817829-284-R-J1-PDC cell line growth inhibition [GQUAD];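 also: spheroids exposed to agents for 7 days before readout; percent viability relative to DMSO vehicle control taken as 100%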", "conditions": "second compound 0.316 µM; first compound 3.16 µM; stronger effect = lower value", "summary_of_the_method": "as §1", "units": {"viability, T/C": "%"}}
{"smiles": "C#Cc1c(F)ccc2cc(O)cc(-c3ncc4c(N5CC6CCC(C5)N6)nc(OCC56CCCN5CC(F)C6)nc4c3F)c12", "note": "(stereo unspecified) + Cc1[nH]c2ccc(F)cc2c1-c1nc2c3cccnc3c3ncccc3c2[nH]1", "viability, T/C": 98.8}
{"smiles": "C=CCn1c(=O)c2cnc(Nc3ccc(N4CCN(C)CC4)cc3)nc2n1-c1cccc(C(C)(C)O)n1", "note": "+ Cc1[nH]c2ccc(F)cc2c1-c1nc2c3cccnc3c3ncccc3c2[nH]1", "viability, T/C": 6.05}
{"smiles": "CC(C)(O)C1CCC(Nc2ccc3ncc(-c4cccc(C(F)(F)F)c4)n3n2)CC1", "note": "(stereo unspecified) + Cc1[nH]c2ccc(F)cc2c1-c1nc2c3cccnc3c3ncccc3c2[nH]1", "viability, T/C": 25.7}
{"smiles": "Nc1ccn(C2OC(CO)C(O)C2(F)F)c(=O)n1", "note": "(stereo unspecified) + Cc1[nH]c2ccc(F)cc2c1-c1nc2c3cccnc3c3ncccc3c2[nH]1", "viability, T/C": 6.19}
{"smiles": "O=C(NO)c1cnc(N2CCN(S(=O)(=O)c3ccc4ccccc4c3)CC2)nc1", "note": "+ Cc1[nH]c2ccc(F)cc2c1-c1nc2c3cccnc3c3ncccc3c2[nH]1", "viability, T/C": 0.08}
{"smiles": "O=c1[nH]cc(F)c(=O)[nH]1", "note": "+ Cc1[nH]c2ccc(F)cc2c1-c1nc2c3cccnc3c3ncccc3c2[nH]1", "viability, T/C": 40.3}
{"tested_on": "817829-284-R-J1-PDC complex spheroids, viability", "assay": "Anticancer human tumor 817829-284-R-J1-PDC cell line growth inhibition [GQUAD];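 also: spheroids exposed to agents for 7 days before readout; percent viability relative to DMSO vehicle control taken as 100%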", "conditions": "second compound 0.316 µM; first compound 10 µM; stronger effect = lower value", "summary_of_the_method": "as §1", "units": {"viability, T/C": "%"}}
{"smiles": "C#Cc1c(F)ccc2cc(O)cc(-c3ncc4c(N5CC6CCC(C5)N6)nc(OCC56CCCN5CC(F)C6)nc4c3F)c12", "note": "(stereo unspecified) + Cc1[nH]c2ccc(F)cc2c1-c1nc2c3cccnc3c3ncccc3c2[nH]1", "viability, T/C": 81.1}
{"smiles": "C=CCn1c(=O)c2cnc(Nc3ccc(N4CCN(C)CC4)cc3)nc2n1-c1cccc(C(C)(C)O)n1", "note": "+ Cc1[nH]c2ccc(F)cc2c1-c1nc2c3cccnc3c3ncccc3c2[nH]1", "viability, T/C": 4.81}
{"smiles": "CC(C)(O)C1CCC(Nc2ccc3ncc(-c4cccc(C(F)(F)F)c4)n3n2)CC1", "note": "(stereo unspecified) + Cc1[nH]c2ccc(F)cc2c1-c1nc2c3cccnc3c3ncccc3c2[nH]1", "viability, T/C": 54.1}
{"smiles": "Nc1ccn(C2OC(CO)C(O)C2(F)F)c(=O)n1", "note": "(stereo unspecified) + Cc1[nH]c2ccc(F)cc2c1-c1nc2c3cccnc3c3ncccc3c2[nH]1", "viability, T/C": 3.54}
{"smiles": "O=C(NO)c1cnc(N2CCN(S(=O)(=O)c3ccc4ccccc4c3)CC2)nc1", "note": "+ Cc1[nH]c2ccc(F)cc2c1-c1nc2c3cccnc3c3ncccc3c2[nH]1", "viability, T/C": 0.15}
{"smiles": "O=c1[nH]cc(F)c(=O)[nH]1", "note": "+ Cc1[nH]c2ccc(F)cc2c1-c1nc2c3cccnc3c3ncccc3c2[nH]1", "viability, T/C": 33.8}
{"tested_on": "817829-284-R-J1-PDC complex spheroids, viability", "assay": "Anticancer human tumor 817829-284-R-J1-PDC cell line growth inhibition [GQUAD];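 also: spheroids exposed to agents for 7 days before readout; percent viability relative to DMSO vehicle control taken as 100%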", "conditions": "second compound 1 µM; first compound 0.000999 µM; stronger effect = lower value", "summary_of_the_method": "as §1", "units": {"viability, T/C": "%"}}
{"smiles": "Cc1[nH]c2ccccc2c1CCNCc1ccc(/C=C/C(=O)NO)cc1", "note": "+ Cc1[nH]c2ccc(F)cc2c1-c1nc2c3cccnc3c3ncccc3c2[nH]1", "viability, T/C": 101}
{"tested_on": "817829-284-R-J1-PDC complex spheroids, viability", "assay": "Anticancer human tumor 817829-284-R-J1-PDC cell line growth inhibition [GQUAD]", "conditions": "second compound 1 µM; first compound 0.00316 µM; stronger effect = lower value", "summary_of_the_method": "as §1", "units": {"viability, T/C": "%"}}
{"smiles": "Cc1[nH]c2ccccc2c1CCNCc1ccc(/C=C/C(=O)NO)cc1", "note": "+ Cc1[nH]c2ccc(F)cc2c1-c1nc2c3cccnc3c3ncccc3c2[nH]1", "viability, T/C": 112}
{"tested_on": "817829-284-R-J1-PDC complex spheroids, viability", "assay": "Anticancer human tumor 817829-284-R-J1-PDC cell line growth inhibition [GQUAD]", "conditions": "second compound 1 µM; first compound 0.00999 µM; stronger effect = lower value", "summary_of_the_method": "as §1", "units": {"viability, T/C": "%"}}
{"smiles": "Cc1[nH]c2ccccc2c1CCNCc1ccc(/C=C/C(=O)NO)cc1", "note": "+ Cc1[nH]c2ccc(F)cc2c1-c1nc2c3cccnc3c3ncccc3c2[nH]1", "viability, T/C": 117}
{"tested_on": "817829-284-R-J1-PDC complex spheroids, viability", "assay": "Anticancer human tumor 817829-284-R-J1-PDC cell line growth inhibition [GQUAD]", "conditions": "second compound 1 µM; first compound 0.0316 µM; stronger effect = lower value", "summary_of_the_method": "as §1", "units": {"viability, T/C": "%"}}
{"smiles": "C#Cc1c(F)ccc2cc(O)cc(-c3ncc4c(N5CC6CCC(C5)N6)nc(OCC56CCCN5CC(F)C6)nc4c3F)c12", "note": "(stereo unspecified) + Cc1[nH]c2ccc(F)cc2c1-c1nc2c3cccnc3c3ncccc3c2[nH]1", "viability, T/C": 102}
{"smiles": "C=CCn1c(=O)c2cnc(Nc3ccc(N4CCN(C)CC4)cc3)nc2n1-c1cccc(C(C)(C)O)n1", "note": "+ Cc1[nH]c2ccc(F)cc2c1-c1nc2c3cccnc3c3ncccc3c2[nH]1", "viability, T/C": 104}
{"smiles": "CC(C)(O)C1CCC(Nc2ccc3ncc(-c4cccc(C(F)(F)F)c4)n3n2)CC1", "note": "(stereo unspecified) + Cc1[nH]c2ccc(F)cc2c1-c1nc2c3cccnc3c3ncccc3c2[nH]1", "viability, T/C": 107}
{"smiles": "Cc1[nH]c2ccccc2c1CCNCc1ccc(/C=C/C(=O)NO)cc1", "note": "+ Cc1[nH]c2ccc(F)cc2c1-c1nc2c3cccnc3c3ncccc3c2[nH]1", "viability, T/C": 82}
{"smiles": "Nc1ccn(C2OC(CO)C(O)C2(F)F)c(=O)n1", "note": "(stereo unspecified) + Cc1[nH]c2ccc(F)cc2c1-c1nc2c3cccnc3c3ncccc3c2[nH]1", "viability, T/C": 20.8}
{"smiles": "O=C(NO)c1cnc(N2CCN(S(=O)(=O)c3ccc4ccccc4c3)CC2)nc1", "note": "+ Cc1[nH]c2ccc(F)cc2c1-c1nc2c3cccnc3c3ncccc3c2[nH]1", "viability, T/C": 118}
{"smiles": "O=c1[nH]cc(F)c(=O)[nH]1", "note": "+ Cc1[nH]c2ccc(F)cc2c1-c1nc2c3cccnc3c3ncccc3c2[nH]1", "viability, T/C": 92.2}
{"tested_on": "817829-284-R-J1-PDC complex spheroids, viability", "assay": "Anticancer human tumor 817829-284-R-J1-PDC cell line growth inhibition [GQUAD]", "conditions": "second compound 1 µM; first compound 0.0999 µM; stronger effect = lower value", "summary_of_the_method": "as §1", "units": {"viability, T/C": "%"}}
{"smiles": "Cc1[nH]c2ccccc2c1CCNCc1ccc(/C=C/C(=O)NO)cc1", "note": "+ Cc1[nH]c2ccc(F)cc2c1-c1nc2c3cccnc3c3ncccc3c2[nH]1", "viability, T/C": 5.56}
{"tested_on": "817829-284-R-J1-PDC complex spheroids, viability", "assay": "Anticancer human tumor 817829-284-R-J1-PDC cell line growth inhibition [GQUAD]", "conditions": "second compound 1 µM; first compound 0.1 µM; stronger effect = lower value", "summary_of_the_method": "as §1", "units": {"viability, T/C": "%"}}
{"smiles": "C#Cc1c(F)ccc2cc(O)cc(-c3ncc4c(N5CC6CCC(C5)N6)nc(OCC56CCCN5CC(F)C6)nc4c3F)c12", "note": "(stereo unspecified) + Cc1[nH]c2ccc(F)cc2c1-c1nc2c3cccnc3c3ncccc3c2[nH]1", "viability, T/C": 90.4}
{"smiles": "C=CCn1c(=O)c2cnc(Nc3ccc(N4CCN(C)CC4)cc3)nc2n1-c1cccc(C(C)(C)O)n1", "note": "+ Cc1[nH]c2ccc(F)cc2c1-c1nc2c3cccnc3c3ncccc3c2[nH]1", "viability, T/C": 103}
{"smiles": "CC(C)(O)C1CCC(Nc2ccc3ncc(-c4cccc(C(F)(F)F)c4)n3n2)CC1", "note": "(stereo unspecified) + Cc1[nH]c2ccc(F)cc2c1-c1nc2c3cccnc3c3ncccc3c2[nH]1", "viability, T/C": 109}
{"smiles": "Nc1ccn(C2OC(CO)C(O)C2(F)F)c(=O)n1", "note": "(stereo unspecified) + Cc1[nH]c2ccc(F)cc2c1-c1nc2c3cccnc3c3ncccc3c2[nH]1", "viability, T/C": 8.09}
